The record followed here is patent US20100216753A1, “CONTROLLED RELEASE OF DRUGS INTO/THROUGH THE SKIN” (Galderma S.A., priority 2005, published 2010).

This series is described as follows: Distribution of the drug in human skin (Franz' cells). Type of series: in vitro ADME. Particulars: 16 hours after application on a human skin (Franz' cells).

Turning to `CCC(=O)O[C@]1(C(=O)CCl)[C@@H](C)C[C@H]2[C@@H]3CCC4=CC(=O)C=C[C@]4(C)[C@@]3(F)[C@@H](O)C[C@@]21C` [Clobetasol-17-propionate], the “Skin distribution of the drug” value was “accumulate in the Stratum corneum”.
